Legend:
PAECs [1] = assay: Proliferation of PAECs (cell count, BrdU pulse, PCNA staining); assay type: cell-based, human
Protocol: A-C) PAECs were plated on soft (1 kPa) or stiff (50 kPa) matrix and exposed to indicated treatments. Apoptosis (A-C) and proliferation (B-C) were quantified 48 h after plating. […] Apoptosis (as reflected by cleaved caspase-3 staining, CC-3+) was increased by serum starvation in both soft and stiff conditions but was not affected by GLS1 inhibition. In all panels, mean expression in control groups (soft matrix) was assigned a fold change of 1, to which relevant samples were compared. Data are expressed as mean±SD (*P<0.05; ** P<0.01, ***P<0.001).
(§1) After various indicated treatments, cultured cells were fixed with PBS/PFA 4% for 10 min and permeabilized with PBS/Triton 100×0.1% for 10 min. The cells were then incubated with anti-PCNA (#4912; 1/100; Invitrogen), anti-Ki67 (ab15580; 1/200; Abcam), and/or anti-cleaved caspase-3 (1/200; Cell Signaling) at room temperature for 2 hours. Secondary antibodies coupled with Alexa-594 and/or Alexa-488 (Thermo Scientific) were used at 1/500. Nuclei were counterstained with DAPI (Sigma).
After specified pre-treatment or transfection protocols as indicated, PAECs or PASMCs were plated in triplicate in 6 well plates at 30 000 cells per well. After overnight incubation for cells to adhere, 6 wells were counted to determine initial count at time of treatments (glutamate, aspartate, BPTES, DON or C968). After 2 days, 4 days or 6 days, the contents of the wells were trypsinized and counted, and proliferation rate was calculated.
Exponentially growing cells were plated in the indicated matrix for 48 hours.

GLS1 = assay: Targeted LC-MS/MS of intracellular metabolites in PAECs on soft or stiff matrix with GLS inhibitors; assay type: cell-based, human; details: BPTES 10 μM, DON 5 μM; for glutamate and aspartate / glutamine, pyruvate, and succinate / lactate: compared with stiff matrix control; for alterations of metabolite expression in stiff matrix (stiffness-induced glutamine consumption, glutamate production, aspartate production) / lactate/pyruvate ratio (glycolysis): C968 10 μM, stiff matrix
Protocol: HEK293T cells (American Type Culture Collection) were cultivated in DMEM containing 10% fetal bovine serum (FBS). Primary human pulmonary arterial endothelial cells (PAECs) were grown in EGM-2 cell culture media (Lonza), and experiments were performed at passages 3 to 6. Primary human pulmonary arterial smooth muscle cells (PASMCs) were cultured in SmGM-2 cell culture media (Lonza), and experiments were performed at passages 3 to 9. Inhibitors of GLS1 (2, 3): BPTES (Bis-2-(5-phenylacetamido-1,3,4-thiadiazol-2-yl)ethyl sulphide), DON (6-Diazo-5-oxo-L-norleucine), and C968 (Glutaminase Inhibitor, Compound 968, 5-(3-Bromo-4-(dimethylamino)phenyl)-2,2-dimethyl-2,3,5,6-tetrahydrobenzo[a]phenanthridin-4(1H)-one) were purchased from Sigma-Aldrich and used at concentration of 10 μM, 5 μM and 10 μM respectively. Glutamate was purchased from Sigma Aldrich and used at concentration of 2 mM. Aspartate was purchased from Sigma Aldrich and used at concentration of 10 mM.
Metabolite extraction was performed essentially as described with minor modifications (35). Briefly, metabolites were extracted from cultured cells and CD31+ cells on dry ice using 80% aqueous methanol pre-cooled at −80° C. Metabolites were extracted from plasma pre-cleared by centrifugation at 20,000×g for 10 min at 4° C. Supernatants were extracted with four volumes of 100% methanol pre-cooled at −80° C. for four hours at −80° C. An internal standard, [^13C4]-2-oxoglutarate (Cambridge Isotope Laboratories) was added during metabolite extraction. Insoluble material from both cell and plasma extractions was removed by centrifugation at 20,000×g for 15 min at 4° C. The supernatant was analysed by targeted LC-MS/MS as previously described (36). Metabolites were separated using a ZIC-HILIC stationary phase (150 mm×2.1 mm×[…]; Merck). The MS parameters were optimized using a glutamine standard solution. Monitored mass transitions were 87>87 (pyruvate), 115>73+99 (succinate), 132>88 (aspartate), 145>101 (20G), […] (glutamine), 146>128 (glutamate), and 149>105 ([^13C4]-20G). Mass transitions and retention time windows were confirmed by the analysis of neat and matrix-spiked standards. Peak areas were quantified by Xcalibur Software (Thermo) and manually reviewed.
To determine whether GLS1 is critical for stiffness-induced and YAP/TAZ-dependent glutaminolysis, PAECs were cultivated in soft or stiff matrix, and exposed to known inhibitors of two isoforms of GLS1 (KGA and GAC), BPTES (Bis-2-(5-phenylacetamido-1,3,4-thiadiazol-2-yl)ethyl sulphide), DON (6-Diazo-5-oxo-L-norleucine), or CB-968 (glutaminase inhibitor, compound 968, C-968) (FIG. 3A-C) or siRNA (si-GLS; FIG. 3D-G). As quantified by LC-MS/MS, inhibition of GLS in PAECs blunted the stiffness-induced processes of glutamine consumption, glutamate production, and aspartate production (FIGS. 3A and E). […] Similar alterations of metabolic activity were observed when inhibiting GLS1 in PASMCs (data not shown).

PAECs [2] = assay: Apoptosis of PAECs on soft or stiff matrix (caspase 3/7 activity, cleaved caspase-3 staining); assay type: cell-based, human
Protocol: A-C) PAECs were plated on soft (1 kPa) or stiff (50 kPa) matrix and exposed to indicated treatments. Apoptosis (A-C) and proliferation (B-C) were quantified 48 h after plating. […] In all panels, mean expression in control groups (soft matrix) was assigned a fold change of 1, to which relevant samples were compared. Data are expressed as mean±SD (*P<0.05; ** P<0.01, ***P<0.001).
as §1
Caspase 3/7 activity was quantified using the Caspase-Glo 3/7 Assay (Promega), according to manufacturer's instructions. Briefly, cells were plated on hydrogel of different stiffness and treated as described. Twenty four hours after plating, cells were cultured in the presence or absence of serum for twenty-four hours. Cells were then lysed and 10 μg of total protein were incubated for 1 h with the caspase substrates, and luminescence was quantified by plate reader (SynergyHTX multi-mode reader, Biotek).

PAAFs [3] = assay: Metabolic activation of PAAFs cultivated on stiff matrix; assay type: cell-based
Text: (§2) A-C) Pharmacological inhibition of GLS1 by either BPTES, C968 or CB839 blunted metabolic activation of PAAFs cultivated on stiff matrix as reflected by decreased glutaminolysis (A), glycolysis (B) and aspartate production (C). D-E) Pharmacological inhibition of GLS1 by either BPTES, C968 or CB839 decreased PAAFs dependent ECM remodelling upon stimulation by pro-inflammatory cytokines (EDN1, IL6 or TGF-b). […] G-H) Fibrilar collagen visualization (G) and quantification (H) by picrosirius red staining confirmed a decreased of ECM remodelling by activated PAAF (TGF-b) in presence of GLS1 inhibitors. I-M) PAAFs were cultivated upon indicated treatments. Cells were removed and pulmonary arterial endothelial cells (PAECs) were cultivated on the matrix synthesized by the PAAF. […] Data are expressed as mean±SEM (*P<0.05, § P<0.01, #P<0.001) of at least 3 independent experiments performed in triplicate. Paired samples were compared by 2-tailed Student's t test, while 1-way ANOVA and post-hoc Tukey's tests were used for group comparisons.

PAAFs [4] = assay: PAAF-dependent ECM remodelling on cytokine stimulation (RT-qPCR, picrosirius red); assay type: cell-based; details: stimulation by pro-inflammatory cytokines (EDN1, IL6 or TGF-b)
Text: as §2
Messenger RNAs were reverse transcribed using the Multiscript RT kit (Life Technologies) to generate cDNA. cDNA was amplified via fluorescently labeled Taqman primer sets using an Applied Biosystems 7900HT Fast Real Time PCR device. To specifically determine the relative expression of the two GLS1 isoforms KGA and GAC, TaqMan gene expression assays Hs01014019_m1 and Hs01022166_m1 were used respectively. Fold-change of RNA species was calculated using the formula (2^−ΔΔCt), normalized to RPLP0 expression.
Picrosirius Red stain was achieved through the use of 5 μm paraffin sections stained with 0.1% Picrosirius Red (Direct Red80, Sigma-Aldrich) and counterstained with Weigert's hematoxylin to reveal fibrillar collagen. The sections were then serially imaged using with an analyzer and polarizer oriented parallel and orthogonal to each other. Microscope conditions (lamp brightness, condenser opening, objective, zoom, exposure time, and gain parameters) were maintained throughout the imaging of all samples. A minimal threshold was set on appropriate control sections for each experiment in which only the light passing through the orthogonally-oriented polarizers representing fibrous structures (i.e., excluding residual light from the black background) was included. The threshold was maintained for all images across all conditions within each experiment. The area of the transferred regions that was covered by the thresholded light was calculated and at least 10 sections/vessel per condition were averaged together (NIH ImageJ software). Targeted LC-MS/MS

| SMILES | cellular proliferation in cells with diminished GLS1 or YAP/TAZ (PAECs [1]; PAECs or PASMCs with siRNA knockdown, glutamate 2 mM, aspartate 10 mM supplementation, data not shown) | glutamate and aspartate (GLS1) | glutamine, pyruvate, and succinate (GLS1) | lactate (GLS1) | alterations of metabolite expression in stiff matrix (stiffness-induced glutamine consumption, glutamate production, aspartate production) (GLS1) | lactate/pyruvate ratio (glycolysis) (GLS1) | apoptosis (cleaved caspase-3 staining, CC-3+) (PAECs [2]; serum starvation, soft and stiff conditions) | caspase 3/7 activity (PAECs [2]; soft (1 kPa) or stiff (50 kPa) matrix, 24 h after serum depletion, vs vehicle control) | proliferation in stiff matrix (PCNA+) (PAECs [1]; PAECs, stiff matrix, 48 h after plating) | aspartate production (PAAFs [3]) | glutaminolysis (PAAFs [3]) | glycolysis (PAAFs [3]) | metabolic activation of PAAFs (PAAFs [3]) | PAAFs dependent ECM remodelling (PAAFs [4]) |
| --- | --- | --- | --- | --- | --- | --- | --- | --- | --- | --- | --- | --- | --- | --- |
| N[C@@H](CCC(=O)O)C(=O)O [glutamate, Glutamate] | at least partially restored | – | – | – | – | – | – | – | – | – | – | – | – | – |
| O=C(Cc1ccccc1)Nc1nnc(CCSCCc2nnc(NC(=O)Cc3ccccc3)s2)s1 [BPTES, Bis-2-(5-phenylacetamido-1,3,4-thiadiazol-2-yl)ethyl sulphide] | – | decreased | increased | decreased | blunted | decreased | not affected | No significant changes | decreased | decreased | decreased | decreased | blunted | decreased |
| [N-]=[N+]=CC(=O)CC[C@H](N)C(=O)O [DON, 6-Diazo-5-oxo-L-norleucine] | – | decreased | increased | decreased | blunted | decreased | – | – | – | – | – | – | – | – |

Source: US11672795B2, “Compositions and methods for treating pulmonary vascular disease” (UNIVERSITY OF PITTSBURGH-OF THE COMMONWEALTH SYSTEM OF …, priority 2016, dated 2023)
